In one assay the target is Glutamate receptor 3 (Rattus norvegicus, UniProt P19492).
Assay [1] has as its target Glutamate receptor ionotropic, kainate 1 (Rattus norvegicus, UniProt P22756).
In assay [2] the target is Glutamate receptor ionotropic, NMDA 1 (Rattus norvegicus, UniProt P35439).

“And” between values parts separate entries of the source, which are not always exact repeats. Equal values may be shown once.

Glutamate receptor ionotropic, kainate 1, sequence (P22756 whole entry): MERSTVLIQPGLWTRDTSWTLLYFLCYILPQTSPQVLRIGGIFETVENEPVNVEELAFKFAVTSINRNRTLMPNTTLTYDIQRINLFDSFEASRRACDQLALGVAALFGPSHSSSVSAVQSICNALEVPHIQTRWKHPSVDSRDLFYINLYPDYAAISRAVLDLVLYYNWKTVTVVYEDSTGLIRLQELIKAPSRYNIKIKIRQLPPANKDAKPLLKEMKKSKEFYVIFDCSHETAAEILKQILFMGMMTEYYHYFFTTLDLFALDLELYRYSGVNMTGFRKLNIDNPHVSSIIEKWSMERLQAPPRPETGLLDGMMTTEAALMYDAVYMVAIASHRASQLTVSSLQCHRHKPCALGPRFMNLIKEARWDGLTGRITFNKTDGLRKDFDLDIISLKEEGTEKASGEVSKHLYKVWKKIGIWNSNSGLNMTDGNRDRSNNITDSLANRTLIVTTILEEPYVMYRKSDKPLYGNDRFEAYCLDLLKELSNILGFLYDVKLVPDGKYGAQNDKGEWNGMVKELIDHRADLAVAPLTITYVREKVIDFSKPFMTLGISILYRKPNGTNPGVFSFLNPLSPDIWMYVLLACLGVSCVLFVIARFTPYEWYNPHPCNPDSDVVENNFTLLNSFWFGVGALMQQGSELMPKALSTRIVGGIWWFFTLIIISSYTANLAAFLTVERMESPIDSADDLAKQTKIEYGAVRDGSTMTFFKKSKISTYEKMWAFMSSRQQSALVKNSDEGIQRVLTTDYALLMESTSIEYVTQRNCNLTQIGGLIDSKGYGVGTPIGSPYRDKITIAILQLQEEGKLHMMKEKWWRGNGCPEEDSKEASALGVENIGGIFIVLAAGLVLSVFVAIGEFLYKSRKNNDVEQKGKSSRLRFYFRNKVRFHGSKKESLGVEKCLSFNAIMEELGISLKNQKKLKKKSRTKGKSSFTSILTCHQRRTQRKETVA
Glutamate receptor 3, sequence (P19492 whole entry): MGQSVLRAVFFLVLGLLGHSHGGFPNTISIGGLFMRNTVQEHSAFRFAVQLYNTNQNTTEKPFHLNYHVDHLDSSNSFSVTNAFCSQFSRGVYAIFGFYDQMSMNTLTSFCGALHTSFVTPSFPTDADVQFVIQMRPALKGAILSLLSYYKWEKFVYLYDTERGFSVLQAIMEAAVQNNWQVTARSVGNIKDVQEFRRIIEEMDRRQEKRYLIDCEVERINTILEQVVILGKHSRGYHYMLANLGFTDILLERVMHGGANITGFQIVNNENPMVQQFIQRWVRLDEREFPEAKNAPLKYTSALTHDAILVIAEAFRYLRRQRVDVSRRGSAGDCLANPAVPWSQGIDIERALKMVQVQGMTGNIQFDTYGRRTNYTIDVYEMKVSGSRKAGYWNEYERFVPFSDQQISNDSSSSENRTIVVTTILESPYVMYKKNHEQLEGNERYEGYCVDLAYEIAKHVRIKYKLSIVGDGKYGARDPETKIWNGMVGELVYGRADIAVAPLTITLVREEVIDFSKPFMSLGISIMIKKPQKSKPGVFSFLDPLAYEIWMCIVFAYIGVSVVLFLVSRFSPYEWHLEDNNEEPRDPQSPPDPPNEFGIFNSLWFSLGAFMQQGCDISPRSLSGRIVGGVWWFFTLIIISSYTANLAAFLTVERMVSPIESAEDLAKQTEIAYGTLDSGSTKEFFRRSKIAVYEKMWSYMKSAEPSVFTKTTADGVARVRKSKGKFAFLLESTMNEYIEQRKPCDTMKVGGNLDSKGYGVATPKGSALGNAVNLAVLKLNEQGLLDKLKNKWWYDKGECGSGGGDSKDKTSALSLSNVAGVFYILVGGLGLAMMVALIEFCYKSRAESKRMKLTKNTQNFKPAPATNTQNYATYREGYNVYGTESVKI

For orientation: Ki means a dissociation constant, usually derived from enzyme kinetics or from competition with a known ligand. As to `O=C1N=c2cc(N(O)O)c(-n3ccnc3)cc2=NC1=O` [CAS_3035216], the Ki on Glutamate receptor 3 was 84 nM; in assay [1], 2200 nM; in assay [2], above 10000 nM.

With `N#Cc1cc2nc(O)c(O)nc2cc1[N+](=O)[O-]` [7-Cyano-3-hydroxy-6-nitro-quinoxalin-2-ol anion], the Ki was 1800 nM in assay [1]; > 10000 nM and 5600 nM in assay [2].

Source of the values: BindingDB's records for PubMed 8558460 (Yamanouchi Pharmaceutical, 1996).
